Where two headings read alike, the source gives them in different places. Where a SMILES comes first, the peptide text is derived from it. [ ]: non-standard residue; d: D form. The star is where a group is joined. ξ: configuration not given here. ξαMeE = CC(N)(CCC(=O)O)C(=O)O; Nonanoyl = CCCCCCCCC(=O)*
Tests used:
[1] = target: HuNV GGII.4 Norovirus protease (Norovirus GII.4 (human norovirus genogroup II genotype 4), UniProt P54634); test: Norovirus protease FRET assay (HuNV GGII.4); type: biochemical; settings: FRET protease assay, read-out: HuNV GGII.4 IC50
[2] = target: Norwalk GGI.1 Norovirus protease (Norovirus, UniProt Q83883); test: Noro-Norwalk FRET protease assay (Norwalk GGI.1); type: biochemical, Norwalk virus; settings: FRET protease assay, read-out: Norwalk GGI.1 IC50
Procedure: Viral protease assays: The antiviral activities of inhibitors were determined by FRET (Fluorescence Resonance Energy Transfer) assay. Purified viral protease was incubated with the protease substrate peptide (Edans-DFHLQ/GP-Dabcyl) and inhibitor, and IC50 values were subsequently determined by the fluorescence signals.
The Noro-Norwalk FRET protease assay was performed in 50 mM HEPES-Na pH 8, 50 mM NaCl, 0.4 mM EDTA, 4% glycerol, and 6 mM DTT. A self-quenching peptide substrate [5-FAM]-[…]-[TAMRA] was custom synthesized by Anaspec. Compounds were diluted in 3-fold serial dilutions to final concentrations of 200 μM to 10.2 nM. Noro protease was added to a final concentration of 1-7 μM, depending on the enzyme activity level, and the peptide substrate was added to a final concentration of 10 μM. The assay was incubated 90 minutes at 37° C. and read in a Perkin Elmer Envision with excitation at 473 nm and emission measurement at 519 nm.

[3] = target: SARS2 protease (Severe acute respiratory syndrome coronavirus 2, UniProt P0DTD1); test: SARS-CoV-2 protease inhibition assay (SARS2 FRET protease assay); type: biochemical; settings: Table E; SARS-CoV-2 protease inhibition; read-out: IC50
In short: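 SARS-CoV-2 protease (25 nM) was incubated for 30 min at 30 °C with 1.3 μM quenched 5-FAM/TAMRA peptide substrate and compound (3-fold dilutions, 20 μM–1.0 nM). The buffer was 20 mM HEPES-Na pH 7, 120 mM NaCl, 0.4 mM EDTA, 0.01% Triton, 5% glycerol and 4 mM DTT. Fluorescence was read at ex 473 and em 519 nm, and IC50 was derived.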

HuNV GGII.4 Norovirus protease, sequence (P54634 1009-1189): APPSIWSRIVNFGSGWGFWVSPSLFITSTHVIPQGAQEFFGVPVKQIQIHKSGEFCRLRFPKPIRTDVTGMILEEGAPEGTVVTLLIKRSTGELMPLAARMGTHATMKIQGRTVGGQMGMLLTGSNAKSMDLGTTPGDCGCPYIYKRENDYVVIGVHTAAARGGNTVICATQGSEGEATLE
Norwalk GGI.1 Norovirus protease, sequence (Q83883 1101-1281): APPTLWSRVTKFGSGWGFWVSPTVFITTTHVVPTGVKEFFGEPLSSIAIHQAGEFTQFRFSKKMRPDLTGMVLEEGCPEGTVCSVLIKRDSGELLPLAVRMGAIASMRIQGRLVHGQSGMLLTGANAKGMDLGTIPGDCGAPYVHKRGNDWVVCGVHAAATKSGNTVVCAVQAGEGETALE

Row | Structure (SMILES) | IC50 ([1]; Table D) [µM] | IC50 ([2]; Table D) [µM] | IC50 [3] [µM] | IC50 ([1]; Table C) [µM] | IC50 ([2]; Table C) [µM]
1 | CON(C)C(=O)C1CC(C(=O)N(C)C)CCCCCC(Cc2ccccc2)OC(=O)N[C@@H](CC(C)C)C(=O)N1 (stereo in doubt) [Compound B43, (4S,7S)-15-benzyl-4-isobutyl-N7-methoxy-N7,N9,N9-trimethyl-2,5-dioxo-1-oxa-3,6-diazacyclopentadecane-7,9-dicarboxamide] | 105 | 105 | > 200 |  | 
2 | CCCCCCCC1CC/C=C/CC(C(=O)NC)C[C@@H](C(=O)N(C)OC)NC(=O)C(CC(C)C)NC(=O)O1 (single isomer, unassigned) [Compound B37] | > 200 | > 200 | > 200 |  | 
3 | CCOP(=O)(OCC)C(O)[C@H](CCC(=O)N(C)CCc1ccccc1)NC(=O)[C@H](CC1CCCCC1)NC(=O)OCc1cccc(Cl)c1 (stereo partly drawn) [Compound A15, 3-Chlorobenzyl ((2S)-3-cyclohexyl-1-(((2S)-1-(diethoxyphosphoryl)-1-hydroxy-5-(methyl(phenethyl)amino)-5-oxopentan-2-yl)amino)-1-oxopropan-2-yl)carbamate] |  |  | > 200 | 139 | > 200
4 | CCN(CCc1ccccc1)C(=O)CC[C@@H](C=O)NC(=O)[C@H](CC1CCCCC1)NC(=O)OCc1cccc(Cl)c1 (stereo in doubt) [Compound A56, 3-Chlorobenzyl ((S)-3-cyclohexyl-1-(((S)-5-(ethyl(phenethyl)amino)-1,5-dioxopentan-2-yl)amino)-1-oxopropan-2-yl)carbamate] |  |  | > 200 | 106 | 9.3
5 | CCOCCN(C)C(=O)CC[C@H](NC(=O)C(CC1CCCCC1)NC(=O)OCc1cccc(Cl)c1)C(O)P(=O)(OCC)OCC (stereo in doubt) [Compound A12, 3-chlorobenzyl ((2S)-3-cyclohexyl-1-(((2S)-1-(diethoxyphosphoryl)-5-((2-ethoxyethyl)(methyl)amino)-1-hydroxy-5-oxopentan-2-yl)amino)-1-oxopropan-2-yl)carbamate] |  |  | 5.4 | > 200 | 122
6 | CCNC(=O)CN(C)C(=O)CC[C@@H](C=O)NC(=O)[C@H](CC1CCCCC1)NC(=O)OCc1cccc(Cl)c1 [Compound A27, 3-Chlorobenzyl ((S)-3-cyclohexyl-1-(((S)-5-((2-(ethylamino)-2-oxoethyl) (methyl)amino)-1,5-dioxopentan-2-yl)amino)-1-oxopropan-2-yl)carbamate] |  |  | 137 | 11.3 | 2.7
7 | CCOP(=O)(OCC)C(O)[C@@H]1CC(C(=O)NC)C/C=C/CCC(Cc2ccccc2)OC(=O)N[C@@H](CC(C)C)C(=O)N1 (stereo partly drawn) [Compound B27, Diethyl (((4S,7S,E)-15-benzyl-4-isobutyl-9-(methylcarbamoyl)-2,5-dioxo-1-oxa-3,6-diazacyclopentadec-11-en-7-yl)(hydroxy)methyl)phosphonate] | 57.9 | 57.9 | > 200 |  | 
8 | CCOP(=O)(OCC)C(O)[C@H](CCC(=O)N(C)CCc1ccc(Cl)cc1)NC(=O)C(CC1CCCCC1)NC(=O)OCc1cccc(Cl)c1 (stereo in doubt) [Compound A40, 3-Chlorobenzyl ((2S)-1-(((2S)-5-((4-chlorophenethyl)(methyl)amino)-1-(diethoxyphosphoryl)-1-hydroxy-5-oxopentan-2-yl)amino)-3-cyclohexyl-1-oxopropan-2-yl)carbamate] |  |  | > 200 | 199 | 117
9 | CCOP(=O)(OCC)C(O)[C@H](CCC(=O)N(C)c1ccccc1)NC(=O)[C@H](CC1CCCCC1)NC(=O)OCc1cccc(Cl)c1 (stereo partly drawn) [Compound A14, 3-Chlorobenzyl ((2S)-3-cyclohexyl-1-(((2S)-1-(diethoxyphosphoryl)-1-hydroxy-5-(methyl (phenyl)amino)-5-oxopentan-2-yl)amino)-1-oxopropan-2-yl) carbamate] |  |  | > 200 | 70.1 | 50.9
10 | CCNC(=O)OCCN(C)C(=O)CC[C@@H](C=O)NC(=O)[C@H](CC1CCCCC1)NC(=O)OCc1cccc(Cl)c1 (stereo in doubt) [Compound A46, 3-Chlorobenzyl ((12S, 15S)-16-cyclohexyl-12-formyl-8-methyl-4,9,14-trioxo-5-oxa-3,8,13-triazahexadecan-15-yl)carbamate] |  |  | > 200 | 28 | 8.6
11 | CCCCCN(C)C(=O)CC[C@H](NC(=O)[C@H](CC1CCCCC1)NC(=O)OCc1cccc(Cl)c1)C(=O)N(C)OC [Compound A8, 3-chlorobenzyl ((S)-3-cyclohexyl-1-(((S)-1-(methoxy (methyl)amino)-5-(methyl(pentyl)amino)-1,5-dioxopentan-2-yl)amino)-1-oxopropan-2-yl)carbamate] |  |  | 89.8 | > 200 | > 200
12 | CCOP(=O)(OCC)C(O)[C@H](CCC(=O)N(CC)CCc1ccccc1)NC(=O)[C@H](CC1CCCCC1)NC(=O)OCc1cccc(Cl)c1 (stereo partly drawn) [Compound A50, 3-Chlorobenzyl ((2S)-3-cyclohexyl-1-(((2S)-1-(diethoxyphosphoryl)-5-(ethyl(phenethyl)amino)-1-hydroxy-5-oxopentan-2-yl)amino)-1-oxopropan-2-yl)carbamate] |  |  | 9.7 | 95.7 | 97.4
13 | CN(CCc1cccc(Cl)c1)C(=O)CC[C@@H](C=O)NC(=O)[C@H](CC1CCCCC1)NC(=O)OCc1cccc(Cl)c1 (stereo in doubt) [Compound A33, 3-Chlorobenzyl ((S)-1-(((S)-5-((3-chlorophenethyl)(methyl)amino)-1,5-dioxopentan-2-yl)amino)-3-cyclohexyl-1-oxopropan-2-yl)carbamate] |  |  | > 200 | > 200 | 117
14 | O=C[C@H](CCC(=O)N1CCOC(c2ccccc2)C1)NC(=O)[C@H](CC1CCCCC1)NC(=O)OCc1cccc(Cl)c1 (stereo in doubt) [Compound A45, 3-Chlorobenzyl ((2S)-3-cyclohexyl-1-(((2S)-1,5-dioxo-5-(2-phenylmorpholino)pentan-2-yl)amino)-1-oxopropan-2-yl)carbamate] |  |  | > 200 | 18.8 | 11
15 | CCCCCN(C)C(=O)CC[C@H](NC(=O)[C@H](CC1CCCCC1)NC(=O)OCc1cccc(Cl)c1)C(O)P(=O)(OCC)OCC (stereo partly drawn) [Compound A9, 3-chlorobenzyl ((2S)-3-cyclohexyl-1-(((2S)-1-(diethoxyphosphoryl)-1-hydroxy-5-(methyl(pentyl)amino)-5-oxopentan-2-yl)amino)-1-oxopropan-2-yl)carbamate] |  |  | > 200 | 154 | 14
16 | CCOCCOCCN(C)C(=O)CC[C@H](NC(=O)C(CC1CCCCC1)NC(=O)OCc1cccc(Cl)c1)C(O)P(=O)(OCC)OCC (stereo in doubt) [Compound A11, 3-Chlorobenzyl ((13S,16S)-17-cyclohexyl-13-((diethoxyphosphoryl)(hydroxy)methyl)-9-methyl-10,15-dioxo-3,6-dioxa-9,14-diazaheptadecan-16-yl)carbamate] |  |  | > 200 | 114 | 133
17 | CCCCCCCCC(=O)N[C@@H](CC(C)C)C(=O)NC(C)(C=O)CCC(=O)N(C)C (stereo partly drawn) [Compound A1, N-((2S)-1-((5-(dimethylamino)-2-methyl-1,5-dioxopentan-2-yl)amino)-4-methyl-1-oxopentan-2-yl)nonanamide] (Nonanoyl-Leu-[ξαMeE](NMe2)-aldehyde) |  |  | > 200 | > 200 | > 200
18 | O=C[C@H](CCC(=O)N1CCCC(c2ccccc2)C1)NC(=O)[C@H](CC1CCCCC1)NC(=O)OCc1cccc(Cl)c1 (stereo in doubt) [Compound A53, 3-Chlorobenzyl ((2S)-3-cyclohexyl-1-(((2S)-1,5-dioxo-5-(3-phenylpiperidin-1-yl)pentan-2-yl)amino)-1-oxopropan-2-yl)carbamate] |  |  | 16.7 | 82.5 | 6.7
19 | CCOCCOCCN(C)C(=O)CC[C@@H](C=O)NC(=O)[C@H](CC1CCCCC1)NC(=O)OCc1cccc(Cl)c1 [Compound A25, 3-Chlorobenzyl ((13S,16S)-17-cyclohexyl-13-formyl-9-methyl-10,15-dioxo-3,6-dioxa-9,14-diazaheptadecan-16-yl)carbamate] |  |  | > 200 | 39.4 | 17.2
20 | CCNC(=O)NCCN(C)C(=O)CC[C@H](NC(=O)[C@H](CC1CCCCC1)NC(=O)OCc1cccc(Cl)c1)C(O)P(=O)(OCC)OCC (stereo partly drawn) [Compound A16, 3-Chlorobenzyl ((12S,15S)-16-cyclohexyl-12-((diethoxyphosphoryl)(hydroxy)methyl)-8-methyl-4,9,14-trioxo-3,5,8,13-tetraazahexadecan-15-yl)carbamate] |  |  | > 200 | > 200 | 81.9

Source: patent US20230151034A1 (COCRYSTAL PHARMA, INC., priority 2020, published 2023)
